Tests used:
[1] = biological target: Voltage-dependent L-type calcium channel subunit alpha-1C (Rattus norvegicus, UniProt P22002); format: functional
[2] = biological target: T1, Muscarinic acetylcholine receptor M1 (Homo sapiens, UniProt P11229); format: functional
T1 sequence (P11229 whole entry): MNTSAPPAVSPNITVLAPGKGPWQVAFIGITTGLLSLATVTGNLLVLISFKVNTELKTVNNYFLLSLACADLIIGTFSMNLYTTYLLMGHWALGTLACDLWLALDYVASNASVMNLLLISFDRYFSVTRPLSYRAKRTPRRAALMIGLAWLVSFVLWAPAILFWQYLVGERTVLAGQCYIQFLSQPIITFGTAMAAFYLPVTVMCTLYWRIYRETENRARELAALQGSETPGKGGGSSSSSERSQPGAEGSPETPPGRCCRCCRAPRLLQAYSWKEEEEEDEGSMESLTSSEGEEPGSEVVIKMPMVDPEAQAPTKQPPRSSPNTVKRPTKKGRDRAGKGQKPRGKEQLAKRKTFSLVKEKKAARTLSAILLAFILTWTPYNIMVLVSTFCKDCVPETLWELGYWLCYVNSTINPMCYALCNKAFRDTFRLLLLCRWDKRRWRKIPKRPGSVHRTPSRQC

[3] = biological target: T2, Muscarinic acetylcholine receptor M2 (Homo sapiens, UniProt P08172); format: functional, cell-based
T2 sequence (P08172 whole entry): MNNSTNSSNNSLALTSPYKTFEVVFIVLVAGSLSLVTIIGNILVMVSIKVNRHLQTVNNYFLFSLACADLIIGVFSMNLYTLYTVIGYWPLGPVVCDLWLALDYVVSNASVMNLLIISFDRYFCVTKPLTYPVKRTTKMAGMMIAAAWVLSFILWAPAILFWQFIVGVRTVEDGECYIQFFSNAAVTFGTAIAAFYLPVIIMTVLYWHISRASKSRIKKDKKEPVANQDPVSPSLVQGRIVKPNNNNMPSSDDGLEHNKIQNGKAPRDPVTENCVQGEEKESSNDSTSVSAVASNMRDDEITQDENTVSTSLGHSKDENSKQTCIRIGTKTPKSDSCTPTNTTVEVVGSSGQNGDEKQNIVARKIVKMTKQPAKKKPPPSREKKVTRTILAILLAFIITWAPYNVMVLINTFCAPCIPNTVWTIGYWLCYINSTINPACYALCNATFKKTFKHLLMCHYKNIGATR

Histamine H1 receptor = Histamine H1 receptor (Homo sapiens, UniProt P35367)
[4] = biological target: Voltage-gated inwardly rectifying potassium channel KCNH2 (Homo sapiens, UniProt Q12809); format: functional; details: read-out: AC50
Motilin receptor = Motilin receptor (Homo sapiens, UniProt O43193)
[5] = biological target: T3, Prostaglandin G/H synthase 1 (Rattus norvegicus, UniProt Q63921); format: functional
T3 sequence (Q63921 whole entry): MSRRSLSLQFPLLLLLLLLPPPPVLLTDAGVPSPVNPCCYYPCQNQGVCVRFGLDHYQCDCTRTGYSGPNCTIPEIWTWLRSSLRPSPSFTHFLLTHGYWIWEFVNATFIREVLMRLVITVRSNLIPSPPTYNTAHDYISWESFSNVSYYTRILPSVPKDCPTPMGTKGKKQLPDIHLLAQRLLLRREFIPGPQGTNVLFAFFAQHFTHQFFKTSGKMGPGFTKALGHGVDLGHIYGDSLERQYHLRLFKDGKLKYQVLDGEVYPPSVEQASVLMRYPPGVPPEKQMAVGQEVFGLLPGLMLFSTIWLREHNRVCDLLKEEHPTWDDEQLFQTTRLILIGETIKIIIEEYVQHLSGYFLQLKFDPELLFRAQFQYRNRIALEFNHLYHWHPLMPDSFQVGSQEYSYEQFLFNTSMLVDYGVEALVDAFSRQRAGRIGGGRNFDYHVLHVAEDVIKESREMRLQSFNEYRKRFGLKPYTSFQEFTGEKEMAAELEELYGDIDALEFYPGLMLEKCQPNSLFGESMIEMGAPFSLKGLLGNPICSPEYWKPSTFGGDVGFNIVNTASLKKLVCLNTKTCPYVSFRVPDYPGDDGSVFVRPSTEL

[6] = biological target: T4, Equilibrative nucleoside transporter 1 (Homo sapiens, UniProt Q99808)
T4 sequence (Q99808 whole entry): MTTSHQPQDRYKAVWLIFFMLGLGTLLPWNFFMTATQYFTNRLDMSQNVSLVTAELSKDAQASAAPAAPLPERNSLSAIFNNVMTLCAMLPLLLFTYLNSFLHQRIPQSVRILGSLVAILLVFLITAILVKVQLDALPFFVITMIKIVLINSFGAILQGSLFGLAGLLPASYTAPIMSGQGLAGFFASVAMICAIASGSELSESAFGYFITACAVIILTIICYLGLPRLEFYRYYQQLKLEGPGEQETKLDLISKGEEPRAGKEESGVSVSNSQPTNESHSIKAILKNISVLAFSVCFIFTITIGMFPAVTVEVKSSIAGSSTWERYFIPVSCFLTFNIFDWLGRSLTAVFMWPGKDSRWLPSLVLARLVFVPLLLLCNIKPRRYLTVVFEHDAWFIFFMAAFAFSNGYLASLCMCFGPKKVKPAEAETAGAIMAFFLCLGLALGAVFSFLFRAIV

[7] = biological target: Sodium-dependent dopamine transporter (Homo sapiens, UniProt Q01959)
[8] = biological target: Sodium-dependent serotonin transporter (Homo sapiens, UniProt P31645)
[9] = biological target: T5, Alpha-1A adrenergic receptor (Homo sapiens, UniProt P35348); format: functional, cell-based
T5 sequence (P35348 whole entry): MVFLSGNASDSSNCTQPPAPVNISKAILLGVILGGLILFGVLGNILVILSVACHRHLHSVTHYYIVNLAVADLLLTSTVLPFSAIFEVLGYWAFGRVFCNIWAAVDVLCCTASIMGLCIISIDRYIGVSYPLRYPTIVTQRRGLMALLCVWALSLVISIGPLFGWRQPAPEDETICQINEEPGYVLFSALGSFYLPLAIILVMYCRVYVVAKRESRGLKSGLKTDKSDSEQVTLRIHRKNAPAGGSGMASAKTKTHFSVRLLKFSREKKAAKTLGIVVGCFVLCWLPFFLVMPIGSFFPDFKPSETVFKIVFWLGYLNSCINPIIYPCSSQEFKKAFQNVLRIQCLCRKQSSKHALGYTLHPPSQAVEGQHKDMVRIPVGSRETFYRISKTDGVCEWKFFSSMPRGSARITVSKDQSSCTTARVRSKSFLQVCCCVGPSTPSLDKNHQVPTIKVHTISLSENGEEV

Histamine H3 receptor = Histamine H3 receptor (Homo sapiens, UniProt Q9Y5N1)
Note: assay procedure not described here.

Sequence of Voltage-gated inwardly rectifying potassium channel KCNH2 (Q12809 whole entry): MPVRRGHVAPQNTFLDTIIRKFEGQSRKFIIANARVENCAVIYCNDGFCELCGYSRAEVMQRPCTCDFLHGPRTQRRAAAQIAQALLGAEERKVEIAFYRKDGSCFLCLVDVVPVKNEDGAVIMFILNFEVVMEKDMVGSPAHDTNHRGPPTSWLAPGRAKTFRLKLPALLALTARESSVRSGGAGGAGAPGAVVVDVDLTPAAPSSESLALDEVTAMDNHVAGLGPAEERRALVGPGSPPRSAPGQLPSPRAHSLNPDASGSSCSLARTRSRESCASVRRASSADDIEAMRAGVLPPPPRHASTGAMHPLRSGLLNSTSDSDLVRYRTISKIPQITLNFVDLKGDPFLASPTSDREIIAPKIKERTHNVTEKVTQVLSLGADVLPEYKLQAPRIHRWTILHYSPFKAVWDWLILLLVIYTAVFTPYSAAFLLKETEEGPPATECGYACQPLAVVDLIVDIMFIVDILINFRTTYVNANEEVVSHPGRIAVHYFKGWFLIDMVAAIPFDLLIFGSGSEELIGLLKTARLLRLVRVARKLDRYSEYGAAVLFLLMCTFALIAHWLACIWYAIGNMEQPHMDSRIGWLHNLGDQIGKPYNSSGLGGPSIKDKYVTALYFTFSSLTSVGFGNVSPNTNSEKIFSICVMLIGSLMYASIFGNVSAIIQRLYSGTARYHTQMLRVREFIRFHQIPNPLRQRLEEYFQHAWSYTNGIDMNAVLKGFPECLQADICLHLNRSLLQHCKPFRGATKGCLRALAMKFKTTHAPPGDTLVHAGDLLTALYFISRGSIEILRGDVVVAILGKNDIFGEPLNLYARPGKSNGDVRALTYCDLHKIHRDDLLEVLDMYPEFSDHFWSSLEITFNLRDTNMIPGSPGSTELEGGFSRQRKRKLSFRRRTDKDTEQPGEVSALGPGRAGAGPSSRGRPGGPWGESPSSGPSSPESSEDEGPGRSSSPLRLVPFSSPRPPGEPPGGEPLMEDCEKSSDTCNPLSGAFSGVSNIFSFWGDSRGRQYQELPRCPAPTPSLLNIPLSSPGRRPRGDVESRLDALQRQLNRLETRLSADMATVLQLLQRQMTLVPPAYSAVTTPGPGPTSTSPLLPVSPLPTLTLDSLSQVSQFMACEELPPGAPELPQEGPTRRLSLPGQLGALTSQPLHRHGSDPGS
Sequence of Histamine H3 receptor (Q9Y5N1 whole entry): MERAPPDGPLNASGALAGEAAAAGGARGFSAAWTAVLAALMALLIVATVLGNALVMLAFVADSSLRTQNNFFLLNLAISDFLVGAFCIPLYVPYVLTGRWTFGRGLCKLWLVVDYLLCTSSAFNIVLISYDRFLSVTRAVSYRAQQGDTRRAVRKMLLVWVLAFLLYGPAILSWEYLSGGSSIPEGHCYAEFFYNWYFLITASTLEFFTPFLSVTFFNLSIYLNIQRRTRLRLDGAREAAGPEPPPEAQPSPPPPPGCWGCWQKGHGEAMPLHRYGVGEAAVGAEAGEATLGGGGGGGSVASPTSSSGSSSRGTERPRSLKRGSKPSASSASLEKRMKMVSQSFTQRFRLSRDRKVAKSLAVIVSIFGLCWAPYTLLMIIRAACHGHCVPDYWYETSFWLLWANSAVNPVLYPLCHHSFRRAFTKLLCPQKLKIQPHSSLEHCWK
Sequence of Histamine H1 receptor (P35367 whole entry): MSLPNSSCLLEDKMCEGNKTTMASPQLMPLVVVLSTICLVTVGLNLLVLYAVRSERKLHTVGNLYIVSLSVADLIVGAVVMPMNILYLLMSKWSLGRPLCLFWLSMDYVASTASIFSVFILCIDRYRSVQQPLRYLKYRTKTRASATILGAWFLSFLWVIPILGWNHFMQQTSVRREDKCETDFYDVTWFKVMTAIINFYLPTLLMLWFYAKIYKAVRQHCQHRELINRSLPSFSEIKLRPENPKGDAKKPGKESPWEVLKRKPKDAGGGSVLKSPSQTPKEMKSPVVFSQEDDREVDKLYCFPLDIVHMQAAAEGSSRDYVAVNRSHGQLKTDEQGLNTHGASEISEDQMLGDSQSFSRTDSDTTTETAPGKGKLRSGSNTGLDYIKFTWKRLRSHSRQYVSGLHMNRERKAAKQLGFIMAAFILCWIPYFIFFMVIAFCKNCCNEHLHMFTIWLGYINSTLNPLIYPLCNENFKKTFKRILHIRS
Sequence of Voltage-dependent L-type calcium channel subunit alpha-1C (P22002 whole entry): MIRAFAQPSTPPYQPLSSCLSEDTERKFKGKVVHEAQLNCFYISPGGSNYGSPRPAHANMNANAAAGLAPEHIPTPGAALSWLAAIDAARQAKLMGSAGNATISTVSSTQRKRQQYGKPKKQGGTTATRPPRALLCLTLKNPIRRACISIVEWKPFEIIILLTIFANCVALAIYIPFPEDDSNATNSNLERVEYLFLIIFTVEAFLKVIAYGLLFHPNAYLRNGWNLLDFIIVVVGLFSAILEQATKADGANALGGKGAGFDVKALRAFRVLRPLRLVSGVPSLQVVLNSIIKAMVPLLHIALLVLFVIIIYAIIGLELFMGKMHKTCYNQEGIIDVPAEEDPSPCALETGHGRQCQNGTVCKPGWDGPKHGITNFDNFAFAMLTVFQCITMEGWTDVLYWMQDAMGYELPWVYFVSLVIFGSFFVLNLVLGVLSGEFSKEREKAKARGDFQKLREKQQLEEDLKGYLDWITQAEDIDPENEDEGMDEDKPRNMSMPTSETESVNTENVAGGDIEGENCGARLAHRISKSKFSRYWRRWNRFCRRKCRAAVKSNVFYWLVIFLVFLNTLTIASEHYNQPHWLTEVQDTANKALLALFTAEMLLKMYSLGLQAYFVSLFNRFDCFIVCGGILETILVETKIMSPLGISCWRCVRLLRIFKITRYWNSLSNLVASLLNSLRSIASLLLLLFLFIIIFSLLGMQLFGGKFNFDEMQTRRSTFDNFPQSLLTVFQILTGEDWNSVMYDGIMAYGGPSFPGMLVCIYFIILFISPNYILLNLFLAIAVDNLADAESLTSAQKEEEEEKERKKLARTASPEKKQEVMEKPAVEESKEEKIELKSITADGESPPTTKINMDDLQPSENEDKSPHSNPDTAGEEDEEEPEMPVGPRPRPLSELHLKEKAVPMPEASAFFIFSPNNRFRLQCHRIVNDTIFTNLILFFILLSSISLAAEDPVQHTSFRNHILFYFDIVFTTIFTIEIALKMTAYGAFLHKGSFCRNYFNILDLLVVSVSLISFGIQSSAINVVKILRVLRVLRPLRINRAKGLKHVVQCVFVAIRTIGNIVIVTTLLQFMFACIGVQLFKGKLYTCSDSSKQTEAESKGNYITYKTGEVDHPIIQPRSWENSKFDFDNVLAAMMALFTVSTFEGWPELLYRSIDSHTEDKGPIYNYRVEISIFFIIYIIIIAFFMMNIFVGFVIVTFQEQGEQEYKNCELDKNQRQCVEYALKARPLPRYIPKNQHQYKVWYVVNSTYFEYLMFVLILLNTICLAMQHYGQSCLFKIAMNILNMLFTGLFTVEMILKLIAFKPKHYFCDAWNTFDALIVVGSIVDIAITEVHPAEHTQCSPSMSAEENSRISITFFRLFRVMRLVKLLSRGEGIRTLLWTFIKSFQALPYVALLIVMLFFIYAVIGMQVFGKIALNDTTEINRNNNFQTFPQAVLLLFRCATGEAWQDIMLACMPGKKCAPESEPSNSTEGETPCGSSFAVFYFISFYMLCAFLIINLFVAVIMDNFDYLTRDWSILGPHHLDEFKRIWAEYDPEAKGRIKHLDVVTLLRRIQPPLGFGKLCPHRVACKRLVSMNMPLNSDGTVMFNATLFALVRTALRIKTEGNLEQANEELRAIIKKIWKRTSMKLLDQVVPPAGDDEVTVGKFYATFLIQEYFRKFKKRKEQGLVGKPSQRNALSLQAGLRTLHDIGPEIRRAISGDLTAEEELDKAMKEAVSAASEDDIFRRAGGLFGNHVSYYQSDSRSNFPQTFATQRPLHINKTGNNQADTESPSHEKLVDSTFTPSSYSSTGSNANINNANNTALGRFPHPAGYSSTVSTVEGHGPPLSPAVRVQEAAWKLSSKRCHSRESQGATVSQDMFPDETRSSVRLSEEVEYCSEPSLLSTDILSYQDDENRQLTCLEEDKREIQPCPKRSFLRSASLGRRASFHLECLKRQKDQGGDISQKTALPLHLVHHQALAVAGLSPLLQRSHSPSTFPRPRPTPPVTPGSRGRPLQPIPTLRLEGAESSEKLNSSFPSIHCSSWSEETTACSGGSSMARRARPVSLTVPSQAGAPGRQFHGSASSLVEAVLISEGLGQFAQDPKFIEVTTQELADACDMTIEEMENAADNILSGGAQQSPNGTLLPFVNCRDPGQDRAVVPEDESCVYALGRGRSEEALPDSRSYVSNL
Sequence of Sodium-dependent serotonin transporter (P31645 whole entry): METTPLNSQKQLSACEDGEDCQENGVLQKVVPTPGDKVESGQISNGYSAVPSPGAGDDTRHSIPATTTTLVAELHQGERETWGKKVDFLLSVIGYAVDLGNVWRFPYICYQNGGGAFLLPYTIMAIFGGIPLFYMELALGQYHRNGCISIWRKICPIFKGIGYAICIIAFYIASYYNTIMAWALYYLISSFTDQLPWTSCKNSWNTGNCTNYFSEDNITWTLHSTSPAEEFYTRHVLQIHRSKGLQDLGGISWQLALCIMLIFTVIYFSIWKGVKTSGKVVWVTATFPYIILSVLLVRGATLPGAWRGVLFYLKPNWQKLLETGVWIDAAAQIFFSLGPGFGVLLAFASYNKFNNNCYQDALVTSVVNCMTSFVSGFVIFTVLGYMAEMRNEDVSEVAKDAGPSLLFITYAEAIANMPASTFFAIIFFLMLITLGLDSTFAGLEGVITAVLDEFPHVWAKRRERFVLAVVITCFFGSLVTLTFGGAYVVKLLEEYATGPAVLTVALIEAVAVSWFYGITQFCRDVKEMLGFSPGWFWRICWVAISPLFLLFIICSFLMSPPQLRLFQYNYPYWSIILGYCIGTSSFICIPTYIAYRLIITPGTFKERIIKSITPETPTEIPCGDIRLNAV

## COc1ccc(C(Cl)=C(c2ccc(OC)cc2)c2ccc(OC)cc2)cc1 [CHLOROTRIANISENE]
[1]
  AC50: > 10 µM
[2]
  AC50: > 30 µM
[3]
  AC50: > 30 µM
Histamine H1 receptor
  AC50: > 30 µM
[4]
  AC50: > 30 µM
Motilin receptor
  AC50: > 30 µM
[5]
  AC50: 0.259 µM
[6]
  AC50: > 30 µM
[7]
  AC50: > 30 µM
[8]
  AC50: > 30 µM
[9]
  AC50: 21 µM
Histamine H3 receptor
  AC50: > 30 µM

## Oc1cc(O)c2c(c1)O[C@H](c1ccc(O)c(O)c1)[C@@H](O)C2 [CIANIDANOL]
[1]
  AC50: > 10 µM
[2]
  AC50: > 10 µM
[3]
  AC50: > 10 µM
Histamine H1 receptor
  AC50: > 10 µM
[4]
  AC50: > 30 µM
Motilin receptor
  AC50: > 10 µM
[6]
  AC50: > 30 µM
[7]
  AC50: > 30 µM
[8]
  AC50: > 30 µM
[9]
  AC50: > 30 µM
Histamine H3 receptor
  AC50: > 10 µM

## CCCO[C@H]1[C@@H]([C@@H](COCc2ccc(Cl)cc2)OCc2ccc(Cl)cc2)OC(OCC)[C@@H]1O (some centres not stated) [CLOBENOSIDE]
[1]
  AC50: > 30 µM
[2]
  AC50: > 30 µM
[3]
  AC50: > 30 µM
Histamine H1 receptor
  AC50: > 30 µM
[4]
  AC50: > 30 µM
Motilin receptor
  AC50: > 30 µM
[5]
  AC50: > 10 µM
[6]
  AC50: > 30 µM
[7]
  AC50: > 30 µM
[8]
  AC50: > 30 µM
[9]
  AC50: > 30 µM
Histamine H3 receptor
  AC50: > 30 µM

## C=C(c1ccccc1OCc1cccc(Cl)c1)n1ccnc1 [CROCONAZOLE]
[1]
  AC50: 18.8 µM
[2]
  AC50: > 10 µM
[3]
  AC50: > 10 µM
Histamine H1 receptor
  AC50: > 10 µM
[4]
  AC50: 4.97 µM
Motilin receptor
  AC50: > 10 µM
[5]
  AC50: 21.1 µM
[6]
  AC50: > 30 µM
[7]
  AC50: > 30 µM
[8]
  AC50: 16.8 µM
[9]
  AC50: 21 µM
Histamine H3 receptor
  AC50: > 10 µM

## CC(=O)Oc1cccc2c1C(=O)c1c(OC(C)=O)cc(C(=O)O)cc1C2=O [DIACEREIN]
[1]
  AC50: > 30 µM
[2]
  AC50: 19 µM
Histamine H1 receptor
  AC50: > 30 µM
[4]
  AC50: > 30 µM
Motilin receptor
  AC50: > 30 µM
[5]
  AC50: 0.9 µM
[6]
  AC50: 4.8 µM
[7]
  AC50: > 30 µM
[8]
  AC50: 23 µM
[9]
  AC50: 13 µM
Histamine H3 receptor
  AC50: > 30 µM

## CCN(CC)C(C)C(=O)c1ccccc1 (configuration not stated) [DIETHYLPROPION]
[1]
  AC50: > 10 µM
[2]
  AC50: > 10 µM
[3]
  AC50: > 10 µM
Histamine H1 receptor
  AC50: 12 µM
[4]
  AC50: 6.5 µM
Motilin receptor
  AC50: > 10 µM
[5]
  AC50: > 30 µM
[6]
  AC50: > 30 µM
[7]
  AC50: > 30 µM
[8]
  AC50: > 30 µM
[9]
  AC50: > 30 µM
Histamine H3 receptor
  AC50: > 10 µM

## Cc1ccc(-c2ncc(Cl)cc2-c2ccc(S(C)(=O)=O)cc2)cn1 [ETORICOXIB]
[1]
  AC50: > 10 µM
[2]
  AC50: > 10 µM
[3]
  AC50: > 10 µM
Histamine H1 receptor
  AC50: > 10 µM
[4]
  AC50: > 30 µM
Motilin receptor
  AC50: > 10 µM
[5]
  AC50: > 30 µM
[6]
  AC50: > 30 µM
[7]
  AC50: > 10 µM
[8]
  AC50: > 10 µM
[9]
  AC50: > 30 µM
Histamine H3 receptor
  AC50: > 10 µM

Reference: ChEMBL document CHEMBL5291721, “A preclinical secondary pharmacology resource illuminates target-adverse drug reaction associations of marketed drugs” (Nat Commun, 2023)
